The test system of assay [1] is caveolar endocytosis in HSFs. In words: Uptake of endocytic markers in human skin fibroblasts (fluorescence microscopy). The note with it: HSFs treated 30 min at 10° C. with lipid, pulse labeled, 5 min at 37° C. Format: cell-based. As for the experimental part:
HSFs were either untreated (Control) or treated for 30 min at 10° C. with D-erythro or L-threo-C8-LacCer, and then pulse labeled with fluorescent albumin or β1-integrin Fab (caveolar markers), Tfn (clathrin marker), dextran (fluid phase marker), or anti-IL2R Fab (for RhoA pathway). After 5 min at 37° C., cells were acid-stripped to remove non-internalized marker and images were acquired by fluorescence microscopy (A) and quantified (B). At least 20 cells for each condition were analyzed in multiple experiments. Bar, 10 μm.
The non-natural (L-threo; LT) isomers of C8-LacCer and BODIPY-LacCer were synthesized. The latter was synthesized by the method detailed in Liu, Y., et al. Chem. Phys. Lipids, 2006, 142, 58 (referred to as Liu). C8-LT-LacCer was prepared through a modification of the methods used in Liu, where an activated for of octanoic acid was used in place of BODIPY-C5-NHS. HSFs were then either untreated (Control) or treated for 30 min at 10° C. with D-erythro (DE) or L-threo (LT) C8-LacCer, and then pulse labeled with fluorescent albumin or anti-β1-integrin Fab (caveolar markers), Tfn (clathrin marker), dextran (fluid phase marker), or anti-IL2R Fab (for RhoA pathway). After 5 min at 37° C., cells were acid-stripped to remove non-internalized marker and images were acquired by fluorescence microscopy (A) and quantified (B). At least 20 cells for each condition were analyzed in multiple experiments. Bar, 10 μm.

For assay [2], the system named is SV40 virus. Nature of the assay: SV40 infection of CV1 cells (large T antigen expression). Format: cell-based, monkey. The note with it: CV1 cells pretreated with lipid and SV40 at low temperature, then 37° C. for 14 hrs.
Assay [3] deals with PM domains enriched in GM1 ganglioside. Nature of the assay: PM microdomain clustering induced by CtxB and anti-CtxB Ab in HSFs. The note with it: HSFs pretreated with lipid 30 min at 10° C. It is filed as cell-based, human. The text has this:
(§1) PM domains enriched in GM1 ganglioside (A,B) or cholesterol (C) were visualized using fluorescent CtxB or BC-⊖, respectively. Clustering of these probes was induced using an anti-CtxB Ab or SV40. Note the inhibition of microdomain clustering when cells were pretreated with C8-LT-LacCer, compared to untreated control samples. (A), HSFs; (B,C) CV1 cells. Bars, 10 μm.
A potential mechanism for C8-LT-LacCer inhibition of caveolar endocytosis, namely disruption of PM microdomain formation, was explored. This mechanistic possibility was tested through incubation of cells with AF594-CtxB at 10° C. to label […] at the PM, followed by an anti-Ctx-B IgG.

Assay [4] has as its system human eosinophils. In words: Eosinophil superoxide generation (cytochrome c reduction). It is filed as cell-based. The note with it: versus medium alone, 37° C., up to 4 h. As for the experimental part:
Human eosinophils were purified from normal individuals or patients with mild allergy by Percoll density gradient centrifugation and magnetic cell sorting using MACS anti-CD16 microbeads as described by Hansel T. T., et al., J. Immunol. Methods 1991, 145, 105. Briefly, after peripheral blood was overlaid on an isotonic Percoll solution (1.084 g.ml, Sigma), the blood was centrifuges at 1000×g for 30 min at 4° C. Mononuclear cells at the interface were removed, and erythrocytes in sediment were lysed by two cycles of hypotonic water lysis. […] The purity of eosinophils counted by Randolph's stain was >98%. […]
Superoxide anion generation and degranulation by human eosinophils were used as readouts of eosinophils functions in response to proteases or synthetic PAR activating peptides. Generation of superoxide by eosinophils was measured by superoxide dismutase-inhibitable reduction of cytochrome c as previously described with slight modifications. […] Immediately after addition of stimuli, the reaction wells were measured for absorbance at 550 nm in a microplate autoreader (Thermomax, Molecular Devices, Menlo Park, Calif.), followed by repeated readings. Between absorbance measurements, the plate was incubated at 37° C. […] To quantitate eosinophils degranulation, the concentrations of eosinphil-derived neutrotoxin (EDN) in the sample supernatants were measure by specific RIA.

Assay [5] relates to human eosinophils. In words: Eosinophil adhesion to tissue culture wells. It is filed as cell-based.
A further assay deals with src kinase. Nature of the assay: src phosphorylation (Y416) immunoblot in HSFs. The note with it: for src activation (phosphorylation at Y416), lipid alone: 30 min at 10° C., then 30 sec at 37° C.; for src phosphorylation induced by β1-stim Ab: cells pretreated with lipid, data not shown. Format: cell-based, human. As for the experimental part:
HSFs were treated with C8-DE-LacCer (±PP2), C8-LT-LacCer, PDGF, or with β1 stim Ab±LacCer isomers. Samples were warmed for 30 sec at 37° C., lysed, and the cell lysates blotted for src and phosphor-Src (Y416).
Cells were incubated for 30 min at 10° C.± the LacCer stereoisomers and/or the β1-stim Ab followed by a 30 sec incubation at 37° C. Cell lysates were then immunoblotted for src and phospho-(Y416) src.
On the technique in general: Immunoblotting shows a protein as a band on a membrane.

The target of a further assay is T1, β1-integrin (Homo sapiens, UniProt P05556).
T1 construct: endogenous in cells; host or cells: human skin fibroblasts (HSFs)
T1 sequence (P05556 21-798): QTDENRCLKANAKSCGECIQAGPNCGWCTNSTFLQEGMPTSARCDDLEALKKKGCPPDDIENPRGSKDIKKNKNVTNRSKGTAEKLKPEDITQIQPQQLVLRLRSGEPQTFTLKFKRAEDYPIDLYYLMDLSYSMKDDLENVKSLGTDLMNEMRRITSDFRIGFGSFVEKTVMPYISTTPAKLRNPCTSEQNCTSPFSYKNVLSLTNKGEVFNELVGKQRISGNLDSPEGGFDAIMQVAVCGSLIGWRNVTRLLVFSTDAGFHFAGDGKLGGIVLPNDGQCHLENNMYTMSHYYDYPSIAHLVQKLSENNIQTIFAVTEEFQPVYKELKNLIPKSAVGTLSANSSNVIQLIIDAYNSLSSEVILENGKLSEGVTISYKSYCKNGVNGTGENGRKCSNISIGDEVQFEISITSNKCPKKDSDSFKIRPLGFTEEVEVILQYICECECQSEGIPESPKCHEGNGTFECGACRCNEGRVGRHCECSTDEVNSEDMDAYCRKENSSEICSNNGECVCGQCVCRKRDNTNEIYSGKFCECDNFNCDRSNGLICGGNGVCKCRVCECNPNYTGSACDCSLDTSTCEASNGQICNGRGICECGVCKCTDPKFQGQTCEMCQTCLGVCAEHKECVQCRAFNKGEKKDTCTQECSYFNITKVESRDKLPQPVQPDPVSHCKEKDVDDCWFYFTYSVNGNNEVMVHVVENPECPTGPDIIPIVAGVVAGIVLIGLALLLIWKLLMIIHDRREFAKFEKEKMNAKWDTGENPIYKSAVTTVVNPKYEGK
Nature of the assay: β1-integrin activation in HSFs (HUTS-4 Ab binding). It is filed as cell-based. The note with it: for HUTS binding (β1-integrin activation), agent alone: HSFs, lipid in the absence of β1-stim Ab, or β1-stim Ab alone. As for the experimental part: FIG. 4a: HSFs were serum-starved for 2-3 hrs and then either untreated (panel 1, Control) or incubated with a stimulating β1-integrin IgG (panel 2; β1-stim) or with the LacCer isomers (panels 3 & 4) for 30 min at 10° C. All samples were then warmed for 30 sec at 37° C., fixed and stained with HUTS-4 Ab that recognizes β1-integrin in its active conformation. Note the absence of β1-integrin activation in cells pretreated with C8-LT-LacCer. Quantitation in FIG. 4b was by image analysis (n≧10 cells/condition; 3 independent experiments). Bars, 10 μm.
A further mechanistic possibility by which C8-LT-LacCer might inhibit caveolar internalization is by disruption transmembrane signaling events required for endocytosis. […] The first examination involved the activation of β1-integrin in HSFs following crosslinking with a stimulatory Ab (β1-stim Ab) using the HUTS-4 Ab which only binds to β1-integrins in their activated conformation (see, e.g., Luque, A. et al., J. Biol. Chem. 1996, 271, 11067).

Assay [6] concerns PM domains enriched in GM1 ganglioside. The note with it: Singh et al., 2006, submitted; cited from earlier work.
Assay [7] relates to clathrin-dependent endocytosis. Nature of the assay: Internalization route of BODIPY-LacCer stereoisomers. It is filed as cell-based. The note with it: data not shown.
In the next assay the test system is rat fibroblasts. In words: Inhibition of lipid analog endocytosis by biochemical treatments in rat fibroblasts. Format: cell-based. The text has this: To define the molecular features of GSL analogs and their ability to selectively internalize by caveolar endocytosis, the structure of the natural D-erythro-LacCer compound was modified (Singh, R. D., et al. Mol. Biol. Cell, 2003, 14, 3254). The modifications included those to the structure of the fluorescent lipid through variations to its carbohydrate headgroup, chain length of the sphingosine base, or chain length of the fluorescent fatty acid (see FIG. 6). Tests were designed to test initial internalization and sensitivity to inhibitor treatments.
To investigate the structural determinants of GSLs that result in selective internalization via caveolae, the structure of the fluorescent GSL analogs were systematically varied (see FIG. 6) and examined to determine the effect of these variations on the mechanism of analog internalization. To examine the significance of the carbohydrate head group, the fluorescent analogs of GalCer, globoside, GM1, LacCer, MalCer, and sulfatide were used. For each of these fluorescent GSL analogs, the fluorescent fatty acid and sphingosine base were identical (n′=3, n=7; FIG. 6A). Rat fibroblasts (RFs) were incubated with each analog in the presence or absence of various inhibitors to differentiate clathrin-dependent from clathrin-independent endocytosis, and the amount of internalization (at 5 min) was quantified by image analysis.
A control experiment was carried out exactly as above, except that BODIPY-LacCer was introduced into cells from an ethanolic solution rather than from a BSA complex.
Furthermore, the importance of hydrophobicity on the mechanism of GSL endocytosis was examined. For these studies, the BODIPY-LacCer analogs that were used varied the chain length of the sphingosine base (C12 to C20), or fatty acid (C3 vs. C5 spacer) (n=1, 5, 7, or 9; n′=1 or 3; FIG. 6A).
Finally, a comparison between NBD-LacCer and NBD-D-PC (see FIG. 6B)was made to study the possible influence of the lipid backbone (ceramide vs. glycerol) on the internalization mechanism.

Assay [8] has as its system clathrin-dependent endocytosis. The note with it: Singh et al., J. Biol. Chem. 2006; cited from earlier work.
The subject of assay [9] is SV40 virus. In words: SV40 binding to CV1 cells (anti-SV40 VP1 MAb). The note with it: lipid and SV40 at low temperature.
Description: (A, B) CV1 cells were incubated LacCer stereoisomers for 30 min at 10° C., and then coincubated for 1 hr at 10° C. with SV40 virus (MOI=15). Samples were washed, incubated for 40 hrs in complete medium, fixed, permeabilized, and stained for the Large T antigen. Values in (B) are mean ±SD (n≧50 cells/condition; three independent experiments). (C, D) CVI cells were treated with SV40 for 1 hr as in (A,B) and SV40 binding to live cells was detected using anti-SV40 VP1 MAb. Values in D are mean ±SD (n≧20 cells from two independent experiments).
Cells were treated with the C8-LT-LacCer isomer and SV40 at low temperature, washed, and then incubated with a monoclonal antibody to the SV40 major capsid protein VP1.
Assay [10] relates to PM domains enriched in GM1 ganglioside and cholesterol. Nature of the assay: SV40-induced PM domain formation in CV1 cells. Format: cell-based, monkey. The note with it: CV1 cells pretreated with lipid, low temperature.
Description: as §1

Consider `CCCCCCCCCCCCC/C=C/[C@@H](O)[C@H](CO[C@@H]1O[C@H](CO)[C@@H](O[C@@H]2O[C@H](CO)[C@H](O)[C@H](O)[C@H]2O)[C@H](O)[C@H]1O)NC(=O)CCCCCCC` [C8-DE-LacCer], for which the “uptake of caveolar markers (fluorescent albumin, β1-integrin Fab)” value (“uptake of caveolar markers” below) in [1] is given as “stimulated caveolar uptake”. In addition, the “SV40 infection monitored by expression of the large T antigen” value in the assay with SV40 virus [2] is listed as “no effect”. For the same compound, the “clustering of PM domains induced by labeled CtxB and crosslinking Ab” value in assay [3] is on record as “No inhibition of domain formation was observed”. Also, the “superoxide production by eosinophils” value with human eosinophils [4] was “A large quantity of superoxide was produced”. Further, the adhesion of eosinophils result in the assay on human eosinophils [5] is “induces adhesion of eosinophils to tissue culture wells”. In the assay on src kinase, the “src activation (phosphorylation at Y416), lipid alone” value is “activated (phosphorylated at Y416)” and the “src phosphorylation induced by β1-stim Ab” value is “did not significantly affect src phosphorylation”. Besides, the “HUTS binding (β1-integrin activation), agent alone” value at β1-integrin is “activated β1-integrin”. Besides, the “formation of PM domains in the absence of a crosslinking Ab” value in assay [6] was “induced the formation of large domains enriched in GM1 ganglioside and cholesterol”.
For “C5-BODIPY-L-threo-lactosylceramide [BODIPY-LT-LacCer]”, the “fraction internalized by clathrin-dependent endocytosis” value in assay [7] is 65-70%.
As for `CC(C)(C)n1nc(-c2ccc(Cl)cc2)c2c(N)ncnc21` [PP2], the “src activation induced by C8-DE-LacCer” value in the assay with src kinase (with src inhibitor) is “blocked”.
Turning to `CCCCCCCCCCCCC/C=C/[C@@H](O)[C@H](CO[C@@H]1O[C@H](CO)[C@@H](O[C@@H]2O[C@H](CO)[C@H](O)[C@H](O)[C@H]2O)[C@H](O)[C@H]1O)NC(=O)CCCCc1ccc2n1[B-](F)(F)[N+]1=C(C)C=C(C)C1=C2` [BODIPY-LacCer], in the assay on rat fibroblasts, the “sensitivity of internalization to chlorpromazine (CPZ)” value is on record as “not by chlorpromazine” and the “sensitivity of internalization to nystatin” value was “substantially inhibited”. In addition, the “inhibition of endocytosis when delivered by ethanol injection vs. BSA complex” value in the assay with rat fibroblasts (ethanolic solution) was “virtually identical results”. Moreover, in the assay with rat fibroblasts (internalization at 5 min), the “Inhibition of lipid analog endocytosis, Clathrin-dependent internalization, Chloropromazine” value stood at 9.3 ± 1.7%; the “Inhibition of lipid analog endocytosis, Clathrin-dependent internalization, K+-depletion” value was 10.4 ± 1.3%; the “Inhibition of lipid analog endocytosis, Clathrin-independent internalization, Genistein” value came out at 73.9 ± 4.1%; the “Inhibition of lipid analog endocytosis, Clathrin-independent internalization, Nystatin” value is 75.1 ± 6.8%. In addition, the internalization route entry in assay [8] is recorded as “internalized via caveolae”.
On to `CCCCCCCCCCCCC/C=C/[C@H](O)[C@H](CO[C@@H]1O[C@H](CO)[C@@H](O[C@@H]2O[C@H](CO)[C@H](O)[C@H](O)[C@H]2O)[C@H](O)[C@H]1O)NC(=O)CCCCCCC` [C8-LT-LacCer, β-D-lactosyl-N-octanoyl-L-threo-sphingosine], for which the “uptake of caveolar markers” value in assay [1] is on record as “inhibited uptake of multiple caveolar markers”. For the same compound, in assay [1] (listed as LT-isomer of C8-LacCer), the “uptake of caveolar markers” value is reported as “selectively inhibiting caveolar endocytosis”. For the same compound, the “SV40 infection monitored by expression of the large T antigen” value in the assay with SV40 virus [2] is recorded as “dramatically reduced”. Also, the “clustering of PM domains induced by labeled CtxB and crosslinking Ab” value in assay [3] was “no clustering of PM domains was observed”. Besides, in the assay with SV40 virus [9], the “inhibition of SV40 binding to CV1 cells” value is “about 80%”. In the assay on src kinase, the “src activation (phosphorylation at Y416), lipid alone” value was “little or no src activation” and the “src phosphorylation induced by β1-stim Ab” value is reported as “inhibited src phosphorylation”. For the same compound, the “SV40 induction of PM domains” value in assay [10] was “prevented the SV40 induction of these PM domains”. For the same compound, on β1-integrin (HSFs pretreated with lipid prior to β1-stim Ab), the “HUTS binding (β1-integrin activation) induced by β1-stim Ab” value is given as “reduced HUTS binding to levels seen in untreated control cells”. Further, the “HUTS binding (β1-integrin activation), agent alone” value at β1-integrin is “no increase in HUTS binding was seen”.

Values taken from patent US8263576B2, “Non-natural sphingolipid analogs and uses thereof” (Mayo Foundation for Medical Education and Research, priority 2006, dated 2012).
